Test results taken from patent US8968715B2, “Drug delivery systems for photodynamic therapy” (The University of British Columbia, priority 2000, dated 2015).
Entries after “also recorded” stand apart in the source; their conditions may differ.

Experiments:
[1] = system: L1210 cells; assay: Cellular uptake of photosensitizer formulations; assay type: cell-based; conditions: 3 μg/ml, FIG. 1
Method: The protocol for setting up the cell cultures and conditions for the cellular assay essentially followed Richter et al. (Proc. SPIE, 2078: 293-304, September 1993). L1210 cells in DMEM and 10% FBS (single experiment, 3 sets) were incubated with the formulations at a concentration of 3 μg/ml and examined for uptake in the cells over time. Cells were recovered by centrifugation, the pellet briefly rinsed, and the cells lysed by freeze thawing in the presence of 2% Triton X-100®. An equal volume of methanol was added and fluorescence was read at 694 nm (λex 440 nm).

[2] = system: MRL/lpr mouse; assay: Transcutaneous PDT treatment of arthritis, ankle width; assay type: in vivo; conditions: 0.5 mg/kg i.v.
Method: Arthritis in the MRL/lpr mouse strain was enhanced by giving 2 intradermal injections (thoracic and inguinal sites) with 0.05 ml of complete Freunds adjuvant containing 10 mg/ml heat-inactivated M. tuberculosis. PDT was given on days 0, 10 and 20 following CFA treatment. PDT was carried out as follows; 3 groups of MRL/lpr mice were injected intravenously with B-B3 at 0.5 mg/kg (copolymer or liposomal formulations), after which they were protected from light. The third group was injected with copolymer alone at an equivalent copolymer concentration to that found in the formulation. An hour later, they were exposed to light at 80 J/cm^2 for […] (8 mW/cm^2).
Ankle width measurements were taken every 5 days prior to PDT treatment.

[3] = Drug incorporation into 10% w/v Pluronic P123; assay type: physicochemical; conditions: for Drug concentration formulated in 10% P123: 10% P123, non-optimized systems
Method: Using formulation methods described in Example 5, the aim was to incorporate 2 mg/ml of B-B3 into 10% w/v P123. It was shown by this method that the B-B3 can typically be incorporated at ˜1.8 mg/ml drug (based on absorbance readings and a molar extinction coefficient of 30425) 24 h post-hydration. This translates to approximately 10% drug loss. Unincorporated drug undergoes aggregation in aqueous solutions, and is characterized by the appearance of a 730 nm absorbance peak. Although the formulations can be made completely aggregate free by centrifugation or sterile filtration through 0.2 μm filters, this adds another step in the manufacturing process, which can be avoided by increasing the copolymer:drug ratio.

[4] = pH studies of formulation stability; assay type: physicochemical; conditions: poloxamer formulations
Excerpt: This necessitates hydration of the solid drug-polymer with a very mild buffer to counteract acidification which occurs upon use of sterile packed distilled water as commonly practiced in clinical settings. Behavior of poloxamers is unaffected by pH, and the use of buffers would be entirely dependent on ionizable groups present on the drug substance.

[5] = system: M1 rhabdomyosarcoma tumor cells; assay: Tumor recurrence after PDT in tumor mouse model; assay type: in vivo, DBA/2 mouse
Method: Photosensitizer formulations were prepared in 10% w/v Pluronics as described in Example 4. BPD-MA was formulated in F127. B-ring compounds B-EA6 and B-B3, were prepared in P123 due to insufficient drug loading in F127. Liposomal BPD-MA formulation was Verteporfin™ and B-ring compounds were formulated in the same lipid composition. Where DMSO/plasma preparations were made, the DMSO dissolved drug was added directly to mouse plasma and the drug association with different plasma components was observed.
In these experiments the tumor model used was the DBA/2 mouse (males) inoculated intradermally with M1 rhabdomyosarcoma tumor cells (M1, ATCC. When tumors reached a diameter of 4-6 mm, the mice (n=10, unless other wise stated) were treated with photodynamic therapy (PDT). PDT involved intravenous injection of the formulated drug in 0.2 mL volume of PBS. This was followed by exposure of the tumor region to laser light (Argon pumped dye laser (5W), 690 nm, 50 J/cm^2) 15 min later. Animals were then monitored for tumor recurrence over a 20 day period post treatment.

[6] = BPD-MA drug loading and formulation stability in Pluronic copolymers (melt method, absorbance); assay type: physicochemical; conditions: 3 days storage at room temperature
Method: In this experiment the use of copolymers for drug loading capability and formulation stability over a 3 day period was examined using the photosensitizer drug BPD-MA. The criteria for choosing the copolymers were based on the solution and viscosity characteristics described in Example 1. The ‘melt’ method is used for the preparation and screening of the large number of samples and is described as follows. At temperatures above 50° C., poloxamers are in their molten state and serve as excellent solvents for tetrapyrrolic compounds, thus avoiding the need for pre-dissolution of drugs in organic solvents. 5 mg of BPD-MA was dissolved with the aid of vortex mixing and sonication at 55° C. into the polymer ‘melts’ to give a final concentration of 5% to 20% w/v of the respective Pluronic. To each melt sample, 2.5 ml of PBS was added to give a final BPD-MA concentration of 2 mg/ml. Samples were allowed to equilibrate to room temperature before drug loading was determined at time zero (T0). 1 ml of suspension was removed for centrifugation (Microfuge, 14,000 rpm, 30 min), and the rest filtered through 0.2 μm filters (Millipore). The filtrate was diluted 1:100 in PBS and the absorbance at 690±3 nm determined (uv-vis spectrophotometer Beckman DU-6401). This procedure was repeated 72 hours later following storage at room temperature and the absorbance measurement (T72).

[7] = Deposition of BPD-MA / F127 formulations on lactose crystals: hydration and filtration; assay type: physicochemical
Method: In this experiment the deposition of the photosensitizer BPD-MA with the block copolymer Pluronic® F127 onto the sugar lactose was examined. Formulations containing 5% (w/v) and a 10% (w/v) F127 were tested. 0.5 g lactose and 10 mg BPD-MA were added to two rotary evaporation flasks. A stock solution of […] F127 was prepared in CH2Cl2. 1.25 ml (for 5% w/v) and 2.5 ml (for 10% w/v) F127 stock solution was added to each flask. The final volume in each flask was made up to 5.0 ml with CH2Cl2 and the components mixed to ensure complete dissolution. The solvent was removed by rotary evacuation at 50° C., and the flask left under vacuum for a further 15 min at 23° C. Micro-thin film deposits were scraped from the walls and hydrated in 5 ml water at 50° C. The formulations were filtered twice using 0.2 μm syringe filters (Acrodisc, polysulphone).
The experimental conditions and components were the same as Example 15 with the exception of the following changes. A stock of 0.2 mg/ml F127 was prepared in ethanol and 0.65 ml (2.5% w/v) and 1.25 ml (5% w/v) of the stock solution was added to two flasks. The final volume was made up to 5.0 ml with ethanol and the contents dissolved with warming. Ethanol was removed by rotary evacuation at 50° C., left under vacuum for 15 min at room. Micro-thin film deposits were scraped from the walls and dissolved in 5 ml water at 50° C. as previously described. […]

## C=Cc1c(C)c2cc3nc(cc4[nH]c(cc5nc(cc1[nH]2)C1(C)C5=CC=C(C(=O)O)C1C(=O)OC)c(C)c4CCC(=O)OC)C(CCC(=O)OC)=C3C (stereo not shown) [B-B3]
[1]; copolymer Pluronic P123 formulation
  Incubation time of 50% uptake level: close to ‘zero’ incubation time
[2]; copolymer formulation, 80 J/cm^2, FIG. 2
  Control of joint inflammation (increase in ankle swelling): highly effective in controlling the inflammation
[2]; liposomal formulation, after day 25
  Control of joint inflammation (increase in ankle swelling): exacerbation of the inflammatory condition
[2]; liposomal formulation, earlier part of the study, FIG. 2, 0.5 mg/kg
  Control of joint inflammation (increase in ankle swelling): improved suppression of the inflammation compared to controls; also recorded: better suppression of the inflammation compared to the controls
[3]
  Drug concentration formulated in 10% P123: approximately 1.8 mg/ml
[3]; aim 2 mg/ml into 10% w/v P123
  Drug incorporated / retained 24 h post-hydration: ~1.8 mg/mL
[4]
  pH dependence of formulation stability: detrimental to formulation stability
[5]; plasma/DMSO preparation
  PDT efficacy in tumor model: completely ineffective for PDT purposes

## C=Cc1c(C)c2cc3nc(cc4[nH]c(cc5nc(cc1[nH]2)C1(C)C5=CC=C(C(=O)OC)C1C(=O)OC)c(C)c4CCC(=O)OCCO)C(CCC(=O)OCCO)=C3C (stereo not shown) [B-EA6]
[4]
  pH dependence of formulation stability: does not display any pH-dependency

## benzoporphyrin derivative monoacid ring A [BPD-MA]
[6]
  Stability of BPD-MA formulations in Pluronic: no loss of stability
[1]; liposomal formulation
  Incubation time at which uptake saturation level is achieved: 30 min
  Incubation time of 50% uptake: approximately 5 min
[3]
  Drug concentration formulated in 10% P123: ≤ 4000 µg/mL
[7]; 2.5% and 5% w/v F127 on lactose, ethanol as solvent
  Filtration through 0.2 μm filter: no resistance
[7]; 5% w/v and 10% w/v F127 on lactose, CH2Cl2 as solvent
  Drug loss on filtration through 0.2 μm filters: no drug loss
[5]; Liposomal, 1.0 mg/kg, Day 7
  Percent (%) Mice Tumor Free: 100%
[5]; Liposomal, 1.0 mg/kg, Day 14
  Percent (%) Mice Tumor Free: 100%
[5]; Liposomal, 1.0 mg/kg, Day 20
  Percent (%) Mice Tumor Free: 30%
[5]; Pluronic F127, 1.0 mg/kg, Day 7
  Percent (%) Mice Tumor Free: 100%
[5]; Pluronic F127, 1.0 mg/kg, Day 14
  Percent (%) Mice Tumor Free: 60%
[5]; Pluronic F127, 1.0 mg/kg, Day 20
  Percent (%) Mice Tumor Free: 60%
[5]; end of the 20 day period
  Likelihood to remain tumor free, poloxamer formulation compared to liposomal BPD-MA: twice as likely to remain tumor free
